From publication PMC5854701 (Scientific Reports, 2018)

Assays:
[1] = system: A/WSN/33 (H1N1)
[2] = system: A/Denmark/524/2009 (H1N1)
[3] = system: influenza B virus B/Memphis/20/1996 (Yamagata); assay: in vitro; details: dog, MDCK
[4] = system: A/Switzerland/9715293/2013 (H3N2)
[5] = in vitro; details: dog
[6] = system: B/Memphis/20/1996 (Yamagata)
[7] = in vitro; details: human
[8] = system: A/Denmark/528/2009 (H1N1)
[9] = system: B/Phuket/3073/2013 (Yamagata)
[10] = system: A/WSN/33 (H1N1); remark: listed apart in the source
[11] = system: influenza B virus B/Utah/09/2014 (Yamagata); assay: in vitro; details: dog, MDCK
[12] = system: A/Washington/29/2009 (H1N1)
[13] = system: influenza B virus B/Brisbane/60/2008 (Victoria); assay: in vitro; details: dog, MDCK
[14] = system: influenza B virus B/Phuket/3073/2013 (Yamagata); assay: in vitro; details: dog, MDCK
[15] = system: influenza B virus B/Wisconsin/1/2010 (Yamagata); assay: in vitro; details: dog, MDCK
[16] = system: A/Texas/04/2009 (H1N1)
[17] = system: A/California/07/2009 (H1N1)
[18] = system: B/Utah/09/2014 (Yamagata)
[19] = system: B/Wisconsin/1/2010 (Yamagata)
[20] = system: multiple strains of influenza A and B viruses; assay: microbe, parasite or virus in culture; format: cell-based
[21] = system: B/Brisbane/60/2008 (Victoria)

## O=c1[nH]c2ccccc2n1C1CCN(C(c2ccsc2)c2nnnn2Cc2ccccc2)CC1 (stereo not drawn) [Compound 9p, 1‐{1‐[(1‐benzyl‐1 H‐1,2,3,4‐tetrazol‐5‐yl)(thiophen‐3‐yl)methyl]piperidin‐4‐yl}‐2,3‐dihydro‐1 H‐1,3‐benzodiazol‐2‐one]
[1]
  % plaque formation at 5 µM: 12.3 ± 2.1%

## O=c1[nH]c2ccccc2n1C1CCN(C(c2ccncc2)c2nnnn2-c2ccc3c(c2)OCCO3)CC1 (stereo not drawn) [Compound 9 h, 1‐(1‐{[1‐(2,3‐dihydro-1,4-benzodioxin-6-yl)-1 H-1,2,3,4-tetrazol-5-yl](pyridin-4-yl)methyl}piperidin-4-yl)-2,3-dihydro-1 H-1,3-benzodiazol-2-one]
[1]
  antiviral activity in plaque assay (in words): moderate antiviral activity

## C[C@@H](c1ccccc1)n1nnnc1[C@H](c1ccsc1)N1CCC(n2c(=O)[nH]c3ccccc32)CC1 [Compound 12a, 1‐{1‐[(S)‐{1‐[(1 S)‐1‐phenylethyl]‐1 H‐1,2,3,4‐tetrazol‐5‐yl}(thiophen‐3‐yl)methyl]piperidin‐4‐yl}‐2,3‐dihydro‐1 H‐1,3‐benzodiazol‐2‐one]
[2]
  SI (selectivity index), A549: >187.5/122.6
[3]
  selectivity ratio: > 55.6
[4]
  SI (selectivity index), A549: >107.1/70.1
[5]
  CC50: > 150 µM
[6]
  SI (selectivity index), A549: >55.6/36.3
[1]
  SI (selectivity index), A549: >214.3/140.1
[7]
  CC50: 98.1 ± 2.5 µM
[8]
  SI (selectivity index), A549: >166.7/109.0
[9]
  SI (selectivity index), A549: >125/81.8
[10]
  effect of pre-treatment of cells on viral replication: little to no effect on viral replication
  efficacy when added at later stages of viral replication: gradually decreased
[11]
  selectivity ratio: > 100
[12]
  SI (selectivity index), A549: >166.7/109.0
[13]
  selectivity ratio: > 250
[14]
  selectivity ratio: > 125
[15]
  selectivity ratio: > 188
[16]
  SI (selectivity index), A549: >136.4/89.2
[17]
  SI (selectivity index), A549: >115.4/75.5
[18]
  SI (selectivity index), A549: >100/65.4
[19]
  SI (selectivity index), A549: >187.5/122.6
[20]; […], read-out: EC50 values against panel of influenza A and B viruses
  EC50: 0.6 to 2.7 µM
[21]
  SI (selectivity index), A549: >250/163.5

## CCc1ccc(C(c2nnnn2-c2ccc3c(c2)OCCO3)N2CCC(n3c(=O)[nH]c4ccccc43)CC2)cc1 (stereo not drawn) [Compound 9 g, 1‐(1‐{[1‐(2,3‐dihydro‐1,4‐benzodioxin‐6‐yl)‐1 H‐1,2,3,4‐tetrazol‐5‐yl](4‐ethylphenyl)methyl}piperidin‐4‐yl)‐2,3‐dihydro‐1 H‐1,3‐benzodiazol‐2‐one]
[1]
  antiviral activity in plaque assay (in words): moderate antiviral activity

## O=c1[nH]c2ccccc2n1C1CCN(C(Cc2ccccc2)c2nnnn2-c2ccc3c(c2)OCCO3)CC1 (stereo not drawn) [Compound 9e, 1‐(1‐{1‐[1‐(2,3‐dihydro‐1,4‐benzodioxin‐6‐yl)‐1 H‐1,2,3,4‐tetrazol‐5‐yl]‐2‐phenylethyl}piperidin‐4‐yl)‐2,3‐dihydro‐1 H‐1,3‐benzodiazol‐2‐one]
[1]
  antiviral activity in plaque assay (in words): moderate antiviral activity

## O=c1[nH]c2ccccc2n1C1CCN(C(c2ccc(-c3ccccc3)cc2)c2nnnn2-c2ccc3c(c2)OCCO3)CC1 (stereo not drawn) [Compound 9 f, 1‐[1‐({[1,1′‐biphenyl]‐4‐yl}[1‐(2,3‐dihydro‐1,4‐benzodioxin‐6‐yl)‐1 H‐1,2,3,4‐tetrazol‐5‐yl]methyl)piperidin‐4‐yl]‐2,3‐dihydro‐1 H‐1,3‐benzodiazol‐2‐one]
[1]
  antiviral activity in plaque assay (in words): not active

## Oseltamivir carboxylate [reference compound]
[1]
  % plaque formation: 11.1 ± 2.1%
[10]
  antiviral activity when added 8 h post viral infection: retained potent antiviral activity

## C[C@@H](c1ccccc1)n1nnnc1[C@@H](c1ccsc1)N1CCC(n2c(=O)[nH]c3ccccc32)CC1 [Compound 12b, 1‐{1‐[(R)‐{1‐[(1 S)‐1‐phenylethyl]‐1 H‐1,2,3,4‐tetrazol‐5‐yl}(thiophen‐3‐yl)methyl]piperidin‐4‐yl}‐2,3‐dihydro‐1 H‐1,3‐benzodiazol‐2‐one]
[1]
  antiviral activity in plaque assay (in words): not active

## Cc1onc(-c2ccccc2)c1C(=O)N1CCN(c2ccc([N+](=O)[O-])cc2Cl)CC1 [Nucleozin, reference compound]
[1]
  % plaque formation: 0%

## O=c1[nH]c2ccccc2n1C1CCN(C(CCc2ccccc2)c2nnnn2-c2ccc3c(c2)OCCO3)CC1 (stereo not drawn) [Compound 5, 1‐(1‐{1‐[1‐(2,3‐dihydro‐1,4‐benzodioxin‐6‐yl)‐1,2,3,4‐tetrazol‐5‐yl]‐3‐phenylpropyl}piperidin‐4‐ yl)‐3 H‐1,3‐benzodiazol‐2‐one]
[5]
  CC50: 17.4 ± 1.2 µM
[1]
  % plaque formation at 5 µM: 16.5 ± 1.2%
[13]
  selectivity ratio: 17.4
[15]
  selectivity ratio: 19.3
[20]
  EC50 values against panel of influenza A and B viruses: single to submicromolar

## CC(C)c1ccc(C(c2nnnn2-c2ccc3c(c2)OCCO3)N2CCC(n3c(=O)[nH]c4ccccc43)CC2)cc1 (stereo not drawn) [Compound 9j, 1‐(1‐{[1‐(2,3‐dihydro‐1,4‐benzodioxin‐6‐yl)‐1 H‐1,2,3,4‐tetrazol‐5‐yl][4‐(propan‐2‐yl)phenyl]methyl}piperidin‐4‐yl)‐2,3‐dihydro‐1 H‐1,3‐benzodiazol‐2‐one]
[1]
  antiviral activity in plaque assay (in words): not active

## CCC(c1nnnn1-c1ccc2c(c1)OCCO2)N1CCC(n2c(=O)[nH]c3ccccc32)CC1 (stereo not drawn) [Compound 9d, 1‐(1‐{1‐[1‐(2,3‐dihydro‐1,4‐benzodioxin‐6‐yl)‐1 H‐1,2,3,4‐tetrazol‐5‐yl]propyl}piperidin‐4‐yl)‐2,3‐dihydro‐1 H‐1,3‐benzodiazol‐2‐one]
[1]
  antiviral activity in plaque assay (in words): moderate antiviral activity

## O=c1[nH]c2ccccc2n1C1CCN(C(c2ccccc2OC(F)(F)F)c2nnnn2Cc2ccccc2)CC1 (stereo not drawn) [Compound 9 u, 1‐{1‐[(1‐benzyl‐1 H‐1,2,3,4‐tetrazol‐5‐yl)[2‐(trifluoromethoxy)phenyl]methyl]piperidin‐4‐yl}‐2,3‐dihydro‐1 H‐1,3‐benzodiazol‐2‐one]
[1]
  % plaque formation at 5 µM: 22.7 ± 2.2%
